Key:
Assay type in all cases: cell-based
[1] = tested on: mold; assay: TAPPI T-487 test on surface-treated paper; set-up: key to TAPPI T-487 rating Week 1 / TAPPI T-487 rating Week 2 / TAPPI T-487 rating Week 3: 100% mold coverage; 1: 90% mold coverage; 2: 80% mold coverage; 3: 70% mold coverage; 4: 60% mold coverage; 50% mold coverage; 6: 40% mold coverage; 7: 30% mold coverage; 8: 20% mold coverage; 9: 10% mold coverage; 10: no mold growth; details: surface treatment; for TAPPI T-487 rating Week 1 / TAPPI T-487 rating Week 2 / TAPPI T-487 rating Week 3: average of three sheets
Procedure: The papers of this example were prepared via surface treatment. The values in Table 3 below represent the average concentration of active biocide in the paper and the average […]-487 test rating based on three paper sheets.

[2] = tested on: mold; assay: TAPPI T-487 fungal efficacy test on paper sheets, biocide added to pulp slurry; set-up: key: coverage; 8: 20% mold coverage; 9: 10% mold coverage; 10: no mold growth; details: average of three sheets
Procedure: (§1) The biocides can be evaluated in the following examples by adding to a 0.4 wt % pulp slurry in water (100% recycle) typically used for gypsum wallboard facing paper. The slurry is filtered through a screen to drain the water from the stock and the resulting paper mat is blotted, couched, and dried to form a paper sheet with a basis weight of approximately 40 lb/1000 ft2. Three sheets per condition are prepared. High Performance Liquid Chromatography (HPLC) is used to determine the amount of biocide present in each sheet. The paper sheets are evaluated for fungal growth via ASTM 3273, currently the industry standard for mold-resistant wallboard, as well as the standard TAPPI T-487 fungal efficacy test.
(§2) The values in Tables 1 and 2 below represent data from samples made substantially according to the preceding protocol. The average concentration of active biocide in the paper and the average test rating based on three paper sheets are shown. Based on tables 1 and 2, approximately 4-4.5 times more DIMTS active was needed in the paper sheet than OIT before no mold growth was observed throughout the entire testing period.
(§3) For ASTM 3273, a 4-week test, the following rating scale applies: • 0—100% mold coverage • 1—90% mold coverage • 2—80% mold coverage • 3—70% mold coverage • 4—60% mold coverage • 5—50% mold coverage • 6—40% mold coverage • 7—30% mold coverage • 8—20% mold coverage • 9—10% mold coverage • 10—no mold growth For TAPPI T-487, a 3-week test, the following rating scale applies: • 0—no mold growth • 1—25% mold coverage • 2—50% mold coverage • 3—75% mold coverage • 4—100% mold coverage

[3] = tested on: mold; assay: ASTM 3273 fungal growth test on paper sheets, biocide added to pulp slurry; set-up: key to ASTM 3273 rating Week 1: 0: 100% mold coverage; 1: 90%; 2: 80%; 3: 70%; 4: 60%; 5: 50%; 6: 40%; 7: 30%; 8: 20%; 9: 10%; 10: no mold growth coverage; 8: 20% mold coverage; 9: 10% mold coverage; 10: no mold growth; key to ASTM 3273 rating Week 2 / ASTM 3273 rating Week 3 / ASTM 3273 rating Week 4: 100% mold coverage; 1: 90% mold coverage; 2: 80% mold coverage; 3: 70% mold coverage; 4: 60% mold coverage; 50% mold coverage; 6: 40% mold coverage; 7: 30% mold coverage; 8: 20% mold coverage; 9: 10% mold coverage; 10: no mold growth; details: average of three sheets
Procedure: as §1, §2, §3

Compound: CCCCNC(=O)OCC#CI [IPBC, 3-iodo-2-propynyl-butylcarbamate]
- TAPPI T-487 rating Week 1 ([1]; 70 ppm in paper): 0
- TAPPI T-487 rating Week 2 ([1]; 70 ppm in paper): 0
- TAPPI T-487 rating Week 3 ([1]; 70 ppm in paper): 0
- TAPPI T-487 rating Week 1 ([1]; 688 ppm in paper): 0
- TAPPI T-487 rating Week 2 ([1]; 688 ppm in paper): 0
- TAPPI T-487 rating Week 3 ([1]; 688 ppm in paper): 0
- TAPPI T-487 rating Week 1 ([1]; 6768 ppm in paper): 0
- TAPPI T-487 rating Week 2 ([1]; 6768 ppm in paper): 0
- TAPPI T-487 rating Week 3 ([1]; 6768 ppm in paper): 0
- effectiveness at controlling mold growth versus comparators ([1]; based on Table 3): more effective at controlling mold growth at lower dosages than DIMTS, ZPT, and TBZ

Compound: CCCCCCCCn1sccc1=O [OIT, octylisothiazolinone]
- TAPPI T-487 rating Week 1 ([2]; 181 ppm in paper sheet): 0
- TAPPI T-487 rating Week 2 ([2]; 181 ppm in paper sheet): 0
- TAPPI T-487 rating Week 3 ([2]; 181 ppm in paper sheet): 0
- TAPPI T-487 rating Week 1 ([2]; 309 ppm in paper sheet): 0
- TAPPI T-487 rating Week 2 ([2]; 309 ppm in paper sheet): 0
- TAPPI T-487 rating Week 3 ([2]; 309 ppm in paper sheet): 0
- TAPPI T-487 rating Week 1 ([2]; 492 ppm in paper sheet): 0
- TAPPI T-487 rating Week 2 ([2]; 492 ppm in paper sheet): 0
- TAPPI T-487 rating Week 3 ([2]; 492 ppm in paper sheet): 0
- ASTM 3273 rating Week 1 ([3]; 113 ppm in paper sheet): 10
- ASTM 3273 rating Week 2 ([3]; 113 ppm in paper sheet): 10
- ASTM 3273 rating Week 3 ([3]; 113 ppm in paper sheet): 10
- ASTM 3273 rating Week 4 ([3]; 113 ppm in paper sheet): 10
- ASTM 3273 rating Week 1 ([3]; 174 ppm in paper sheet): 10
- ASTM 3273 rating Week 2 ([3]; 174 ppm in paper sheet): 10
- ASTM 3273 rating Week 3 ([3]; 174 ppm in paper sheet): 10
- ASTM 3273 rating Week 4 ([3]; 174 ppm in paper sheet): 10
- ASTM 3273 rating Week 1 ([3]; 283 ppm in paper sheet): 10
- ASTM 3273 rating Week 2 ([3]; 283 ppm in paper sheet): 10
- ASTM 3273 rating Week 3 ([3]; 283 ppm in paper sheet): 10
- ASTM 3273 rating Week 4 ([3]; 283 ppm in paper sheet): 10

Compound: c1ccc2[nH]c(-c3cscn3)nc2c1 [TBZ, Thiabendazole]
- TAPPI T-487 rating Week 1 ([1]; 31 ppm in paper): 4 (100% mold coverage)
- TAPPI T-487 rating Week 2 ([1]; 31 ppm in paper): 4 (100% mold coverage)
- TAPPI T-487 rating Week 3 ([1]; 31 ppm in paper): 4 (100% mold coverage)
- TAPPI T-487 rating Week 1 ([1]; 229 ppm in paper): 2 (50% mold coverage)
- TAPPI T-487 rating Week 2 ([1]; 229 ppm in paper): 4 (100% mold coverage)
- TAPPI T-487 rating Week 3 ([1]; 229 ppm in paper): 4 (100% mold coverage)
- TAPPI T-487 rating Week 1 ([1]; 4107 ppm in paper): 0
- TAPPI T-487 rating Week 2 ([1]; 4107 ppm in paper): 0
- TAPPI T-487 rating Week 3 ([1]; 4107 ppm in paper): 0

Compound: zinc pyrithione [ZPT]
- TAPPI T-487 rating Week 1 ([1]; 60 ppm in paper): 4 (100% mold coverage)
- TAPPI T-487 rating Week 2 ([1]; 60 ppm in paper): 4 (100% mold coverage)
- TAPPI T-487 rating Week 3 ([1]; 60 ppm in paper): 4 (100% mold coverage)
- TAPPI T-487 rating Week 1 ([1]; 486 ppm in paper): 1 (25% mold coverage)
- TAPPI T-487 rating Week 2 ([1]; 486 ppm in paper): 4 (100% mold coverage)
- TAPPI T-487 rating Week 3 ([1]; 486 ppm in paper): 4 (100% mold coverage)
- TAPPI T-487 rating Week 1 ([1]; 5408 ppm in paper): 0
- TAPPI T-487 rating Week 2 ([1]; 5408 ppm in paper): 0
- TAPPI T-487 rating Week 3 ([1]; 5408 ppm in paper): 0
